The values below come from patent US12274680B2, “Treatment of benign prostatic hypertrophy with capsinoids” (priority 2022, dated 2025).

The subject of series [1] is BPH. The settings on record: longer term studies; cited from earlier work.
Series [2] has as its system bladder outlet obstruction (BOO) due to benign prostatic hypertrophy (BPH). The series can be described thus: Case observation of one patient with BOO due to BPH (self-catheterization frequency, urine flow, PSA, prostate size). In kind it is in vivo. The procedure: A patient suffering from BOO due to BPH was experiencing increasing symptoms of BOO from 2018 to 2022 in addition to increasing levels of prostate specific antigen (PSA). This patient preferred the occasional self-catheterization to surgical treatment of the BPH. From 2018 to 2021 the self-catheterization frequency associated with 8 mg of silodosin (an alpha-1 antagonist/blocker) orally daily was about once every 6 months. […] By January 2022, the self-catheterization was weekly. The patient commented that most of the times self-catheterization was necessary, followed a decreased intake of spicy foods, which were an almost daily ingestion for this patient. The patient was instructed to ingest 40,000 SHU (Scoville Heat Units) daily in the form of a cayenne nutraceutical capsule obtained over the counter (OTC) at a pharmacy. The cayenne capsule is a powder of ground chili pepper with a claimed total capsinoid activity of 40,000 SHU resulting from the mixture of capsinoid chemicals in the pepper. […] These clinical findings are consistent with the dramatic improvement in BOO following treatment with oral capsinoids.

Molecules are shown by their SMILES.

As for `COc1cc2nc(N3CCN(C(=O)C4CCCO4)CC3)nc(N)c2cc1OC` (stereo not drawn) [terazosin], in series [1], the “urinary flow rates and subjective symptom scores” value was “significant improvements”.

On to `COc1cc2nc(N3CCN(C(=O)C4COc5ccccc5O4)CC3)nc(N)c2cc1OC` (stereo not drawn) [doxazosin], for which the “urinary flow rates and subjective symptom scores” value in series [1] was “significant improvements”. For `C[C@H](Cc1cc2c(c(C(N)=O)c1)N(CCCO)CC2)NCCOc1ccccc1OCC(F)(F)F` [silodosin], the adverse event entry in series [2] (silodosin 8 mg orally daily, led to dose decrease to 4 mg) is “severe cardiovascular adverse event”. For the same compound, in series [2] (silodosin dose decreased to 4 mg, by January 2022), the self-catheterization frequency entry was “weekly”.

Take `O=C(NC1CCN(CCc2c[nH]c3ccccc23)CC1)c1ccccc1` [indoramin]: the “urinary flow rates and subjective symptom scores” value in series [1] was “significant improvements”. Turning to `COc1cc2nc(N3CCN(C(=O)c4ccco4)CC3)nc(N)c2cc1OC` [prazosin], the “urinary flow rates and subjective symptom scores” value in series [1] is “significant improvements”.
